How the values were obtained:
Wister-strain male rats = experiment: Acute Toxicity Test (intravenous); type: in vivo, rat; conditions: 100 ml/kg-body weight, isotonized emulsion (Table 4), observed one week
Procedure: The acute toxicity test on the preparations of the present invention was carried out using the preparations of the present invention shown in Table 4 which had been physiologically isotonized. The test animals used were Wister-strain male rats (weighing 100-120 g).

[1] = Distribution of Perfluoro-compound in Organs (gas chromatography); type: in vivo, Wister-strain male rats; conditions: for Residual Rate of perfluorobicyclo compound: 3 Months, 4 g/kg tail vein
Source text: The content of perfluoro-4-methyloctanhydroquinolidine uptake in each organ 1, 2 and 4 weeks and 3 months after the administration are shown in Table 5.

SMILES	death cases (Wister-strain male rats)	adverse influence on the liver or spleen organ ([1]; 4 g/kg into the tail vein, 3 months)	Residual Rate of perfluorobicyclo compound ([1]; Liver)	Residual Rate of perfluorobicyclo compound ([1]; Spleen)
FC(F)(F)C(F)(F)C1(F)N2C(F)(F)C(F)(F)C(F)(F)C(F)(F)C2(F)C(F)(F)C(F)(F)C1(F)F (centres unmarked) [perfluoro-4-ethyloctahydroquinolidine]	no death case			
FC(F)(F)C1(F)N2C(F)(F)C(F)(F)C(F)(F)C(F)(F)C2(F)C(F)(F)C(F)(F)C1(F)F (centres unmarked) [perfluoro-4-methyloctahydroquinolidine]	no death case	no evidence of adverse influence on the liver or spleen organ	0.30%	0.09%

— patent US4596810A, “Emulsions of perfluoro octahydro quinolizines useful as blood substitutes” (The Green Cross Corporation, priority 1984, dated 1986)
